Measured values taken from patent US10023532B2, “Alkyl phenyl sulfide derivative and pest control agent” (KUMIAI CHEMICAL INDUSTRY CO., LTD., priority 2012, dated 2018).

Assays:
[1] = tested on: Tetranychus urticae Koch (two spotted spider mite); assay: Control effect test for Tetranychus urticae Koch (two spotted spider mite); type: in vivo; details: active ingredient concentration 4 ppm, soybean seedlings with 35 female adults immersed, 25° C., after 13 days, no replication; for pest or weed control at 4 ppm: Tetranychus urticae, 312 h
Protocol: A wettable powder prepared based on Formulation Example 2 was diluted with water into an active ingredient concentration of 4 ppm. In the solution were immersed soybean seedlings which had been inoculated with 35 female adults of two spotted spider mite. The soybean seedlings were dried in the air and placed in a thermostat of 25° C. After 13 days, the number of living female adults was examined and the control value of the active ingredient was determined using the calculation formula of the following Mathematical Expression 1. This test was conducted with no replication. Control value=100−[(number of living female adults after 13 days, in treated seedlings)/(number of living female adults after 13 days, in non-treated seedlings)]×100 [Mathematical Expression 1]
Tests similar to the above were conducted using, as comparative compounds, compound Nos. 22 and 23 described in JP-A-1975-29744, compound Nos. 3, 4, 5, 6 described in JP-A-1976-19121 and compound Nos. 18, 19 and 36 described in JP-A-1988-41451. The structures of these comparative compounds are as follows.

[2] = tested on: Nilaparvata lugens Stál (brown rice planthopper); assay: Insecticidal activity test for Nilaparvata lugens Stál (brown rice planthopper); type: in vivo; details: active ingredient concentration 100 ppm, sprouting unhulled rice immersed, 10 3-instar larvae, 25° C., after 6 days, no replication; for mortality at 100 ppm: Nilaparvata lugens, 144 h
Protocol: A wettable powder prepared based on Formulation Example 2 was diluted with water into an active ingredient concentration of 100 ppm. In the solution was immersed sprouting unhulled rice. They were placed in a 60-ml plastic cup. Thereinto were released 10 3-instar larvae of brown rice planthopper. The cup was covered with a lid and placed in a thermostat of 25° C. After 6 days, the number of living insects was counted and the mortality of insect was determined from the calculation formula of the following Mathematical Expression 2. This test was conducted with no replication. Mortality (%)=100−[(number of living insects after 6 days)/(number of tested insects)]×100 [Mathematical Expression 2]
As in the case of Test Example 1, tests similar to the above were conducted using, as comparative compounds, compound Nos. 22 and 23 described in JP-A-1975-29744, compound Nos. 4, 5, 6 described in JP-A-1976-19121 and compound Nos. 18, 19 and 36 described in JP-A-1988-41451.

| Structure (SMILES) | control value [1] | mortality at 100 ppm [2] | pest or weed control at 4 ppm [1] | mortality [2] |
| --- | --- | --- | --- | --- |
| C#CCOc1ccc(C)c(SCCC)c1 [compound 3] | no activity |  |  |  |
| Fc1cc(Cl)c(SCC(F)(F)F)cc1OCCCCCSC(F)(F)F [A-0433, 5-trifluoromethylthiopentyl-[4-chloro-2-fluoro-5-(2,2,2-trifluoroethylthio)phenyl] ether] |  | ≥ 90% |  |  |
| [O-][S+](CC(F)(F)F)c1cc(OCCc2ccc(C(F)(F)F)cc2)c(Cl)cc1Cl (stereo not shown) [A-0767, 2-(4-trifluoromethylphenyl)ethyl-[2,4-dichloro-5-(2,2,2-trifluoroethylsulfinyl)phenyl] ether] |  |  | ≥ 90% |  |
| Cc1cc(C)c([S+]([O-])CC(F)(F)F)cc1OCCc1ccc(OC(F)(F)F)cc1 (stereo not shown) [A-0783, 2-(4′-trifluoromethoxyphenyl)ethyl-[2,4-dimethyl-5-(2,2,2-trifluoroethylsulfinyl)phenyl] ether] |  |  | ≥ 90% |  |
| CCCSc1cc(OCc2ccc(Cl)cc2)ccc1C [compound 18] | no activity |  |  | no activity |
| FC(F)(F)CSc1cc(OCCCCCCSC(F)(F)F)c(Cl)cc1Cl [A-0478, 6-trifluoromethylthiohexyl-[2,4-dichloro-5-(2,2,2-trifluoroethylthio)phenyl] ether] |  |  | ≥ 90% |  |
| Cc1cc(F)c(OCCCCC(C)(C)C)cc1[S+]([O-])CC(F)(F)F (stereo not shown) [A-0086, 5,5-dimethylhexyl-[2-fluoro-4-methyl-5-(2,2,2-trifluoroethylsulfinyl)phenyl] ether] |  | ≥ 90% | ≥ 90% |  |
| Cc1ccc(OCCCCCSC(F)(F)F)cc1[S+]([O-])CC(F)(F)F (stereo not shown) [A-0439, 5-trifluoromethylthiopentyl-[4-methyl-3-(2,2,2-trifluoroethylsulfinyl)phenyl] ether] |  | ≥ 90% | ≥ 90% |  |
| CCC[S+]([O-])c1cc(OCC=CCl)ccc1C (stereo not shown) [compound 6] | no activity |  |  | no activity |
| Cc1cc(F)c(OCCCCC(C)(C)C)cc1SCC(F)(F)F [A-0085, 5,5-dimethylhexyl-[2-fluoro-4-methyl-5-(2,2,2-trifluoroethylthio)phenyl] ether] |  | ≥ 90% | ≥ 90% |  |
| C#CCOc1ccc(C)c([S+]([O-])CCC)c1 (stereo not shown) [compound 4] | no activity |  |  | no activity |
| CCCSc1cc(OCCCSCc2ccccc2)ccc1C [compound 36] | no activity |  |  | no activity |
| CCCCCCOc1ccc(Cl)c(SCCC)c1 [compound 22] | no activity |  |  | no activity |
| Cc1ccc(OCCCCCSC(F)(F)F)cc1SCC(F)(F)F [A-0438, 5-trifluoromethylthiopentyl-[4-methyl-3-(2,2,2-trifluoroethylthio)phenyl] ether] |  | ≥ 90% | ≥ 90% |  |
| Cc1cc(C)c([S+]([O-])CC(F)(F)F)cc1OCCCCCCSC(F)(F)F (stereo not shown) [A-0481, 6-trifluoromethylthiohexyl-[2,4-dimethyl-5-(2,2,2-trifluoroethylsulfinyl)phenyl]ether] |  |  | ≥ 90% |  |
| CCCSc1cc(OCC=CCl)ccc1C [compound 5] | no activity |  |  | no activity |
| CCC[S+]([O-])c1cc(OCc2ccc(Cl)cc2)ccc1C (stereo not shown) [compound 19] | no activity |  |  | no activity |
| [O-][S+](CC(F)(F)F)c1cc(OCCCCCCSC(F)(F)F)c(Cl)cc1Cl (stereo not shown) [A-0479, 6-trifluoromethylthiohexyl-[2,4-dichloro-5-(2,2,2-trifluoroethylsulfinyl)phenyl] ether] |  |  | ≥ 90% |  |
| CCCCCCOc1ccc(Cl)c([S+]([O-])CCC)c1 (stereo not shown) [compound 23] | no activity |  |  | no activity |
| Cc1cc(F)c(O)cc1SCC(F)(F)F [C-0001, 2-fluoro-4-methyl-5-(2,2,2-trifluoroethylthio)phenol] |  | ≥ 90% |  |  |
| [O-][S+](CC(F)(F)F)c1cc(OCCCCCSC(F)(F)F)c(F)cc1Cl (racemic) [A-0434, 5-trifluoromethylthiopentyl-[4-chloro-2-fluoro-5-(2,2,2-trifluoroethylsulfinyl)phenyl] ether] |  | ≥ 90% | ≥ 90% |  |
